Patent publication US6562872B1, “Emulsion of perfluoroorganic compounds for medical purposes, a process for the preparation thereof and methods for treating and preventing diseases with the use thereof” (Otkrytoe Aktsionernoe Obschestvo Naucho-Proizvodstven-Naya …, priority 2001, dated 2003)
In brackets after ≈: the same amount, converted by molar mass.

Experiments:
[1] = Solubility of PFOCs in membranes of erythrocytes; assay type: physicochemical; settings: 37° C.
[2] = Solubility of PFOCs in olive oil lipids; assay type: physicochemical; settings: oil or lipid, 37° C.

Row | SMILES | Solubility in membranes [1] | solubility [2]
1 | FC1(F)C(F)(F)C(F)(F)C2(F)C(F)(F)C(F)(F)C(F)(F)C(F)(F)C2(F)C1(F)F (centres unmarked) [Perfluorodecalin (PFD), perfluorodecalin] | 2.0 ml per kg of dry membranes | 26 mM (≈ 12000 µg/mL)
2 | FC(F)(F)C(F)(F)C(F)(F)N(C(F)(F)C(F)(F)C(F)(F)F)C(F)(F)C(F)(F)C(F)(F)F [Perfluorotripropylamine] | 0.3 ml per kg of dry membranes | 5.1 mM (≈ 2660 µg/mL)
3 | FC(F)(F)C1(F)C(F)(F)C(F)(F)C(F)(N2C(F)(F)C(F)(F)C(F)(F)C(F)(F)C2(F)F)C(F)(F)C1(F)F (centres unmarked) [perfluoro-N-(4-methylcyclohexyl)-piperidine] | 0.5 ml per kg of dry membranes | 7.6 mM (≈ 4520 µg/mL)
4 | FC(F)(F)C(F)(F)C(F)(F)C(F)(F)N(C(F)(F)C(F)(F)C(F)(F)C(F)(F)F)C(F)(F)C(F)(F)C(F)(F)C(F)(F)F [Perfluorotributylamine] | 0.08 ml per kg of dry membranes | 1.2 mM (≈ 805 µg/mL)
